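Growth conditions: 96-well plates. Treatment: test compound, 48 hours, 5 concentrations. Analysis: linear interpolation between bracketing concentrations; unreached endpoints set to highest concentration. TGI is the concentration that stops growth completely.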
Legend:
Test in all cases: NCI tumour cell line growth inhibition, 48 h
DLD-1 colon = system: DLD-1 colon
DMS 114 small cell lung = system: DMS 114 small cell lung
HOP-18 NSCLC = system: HOP-18 NSCLC
LXFL 529 NSCLC = system: LXFL 529 NSCLC
M19-MEL melanoma = system: M19-MEL melanoma
SNB-78 CNS = system: SNB-78 CNS
RXF-631 renal = system: RXF-631 renal
XF 498 CNS = system: XF 498 CNS
MDA-N = system: MDA-N

`O=C1c2ccccc2C(=O)N1C/C=C/CO` was tested. Which TGI (DLD-1 colon) did it give?
The TGI was greater than 100 µM.

And the TGI (DMS 114 small cell lung)?
Its TGI is greater than 100 µM.

What about the TGI (HOP-18 NSCLC) of the same compound?
Its TGI is greater than 100 µM.

What about the TGI (LXFL 529 NSCLC) of the same compound?
The TGI was greater than 100 µM.

What about the TGI (M19-MEL melanoma) of the same compound?
The TGI was greater than 100 µM.

And the TGI (SNB-78 CNS)?
Its TGI is greater than 100 µM.

What does the source list for `O=C(COC(=O)c1cccc2c(=O)c3ccccc3[nH]c12)Nc1ccccc1`?
TGI (DLD-1 colon): > 100 µM; TGI (DMS 114 small cell lung): 59.3 µM; TGI (HOP-18 NSCLC): > 100 µM; TGI (LXFL 529 NSCLC): > 100 µM; TGI (M19-MEL melanoma): > 100 µM; TGI (RXF-631 renal): 99 µM; TGI (XF 498 CNS): 74.4 µM

Which TGI (MDA-N) does the source give for `COc1ccc2c(c1OC)OCC(CN(C)C)C2=O` (configuration not stated) here?
The TGI was 32.4 µM.

With `CSc1ncnc2c1ncn2C1OC(CO)C(O)OC1O` (configuration not stated) as the compound, how does the TGI (MDA-N) read?
Its TGI is 27.7 µM.

`O=c1oc2ccc(-n3c(=O)c4ccccc4c4ccccc4c3=O)cc2c2ccccc12` was tested. Which TGI (MDA-N) did it give?
Its TGI is greater than 100 µM.

What does the source list for `O=C(NC1C2CC3CC(C2)CC1C3)c1cc(/C=C/c2ccccc2)[nH]c(=S)n1` (configuration not stated)?
TGI (DLD-1 colon): > 100 µM; TGI (DMS 114 small cell lung): > 100 µM; TGI (LXFL 529 NSCLC): > 100 µM; TGI (M19-MEL melanoma): > 100 µM; TGI (RXF-631 renal): > 100 µM; TGI (SNB-78 CNS): > 100 µM; TGI (XF 498 CNS): > 100 µM

How did the TGI (MDA-N) turn out when `CCCCCCCCCCCCCCCCOP(=O)(O)OP(=O)(O)OCC1OC(n2ccc(N)nc2=O)C(O)C1O` (configuration not stated) was run?
The TGI was greater than 100 µM.

For `CC[C@@]1(O)C(=O)OCc2c1cc1n(c2=O)Cc2c-1nc1cc3c(cc1c2C)OCO3`, which TGI (MDA-N) is on record?
Its TGI is greater than 100 µM.

`N#CCC(=O)N/N=C(\C(=O)Nc1ccc(Cl)c(Cl)c1)C1CN(c2ccccc2)N=C1N` (configuration not stated) was tested. Which TGI (DLD-1 colon) did it give?
Its TGI is greater than 100 µM.

What about the TGI (DMS 114 small cell lung) of the same compound?
Its TGI is greater than 100 µM.

What about the TGI (HOP-18 NSCLC) of the same compound?
Its TGI is greater than 100 µM.

What about the TGI (LXFL 529 NSCLC) of the same compound?
The TGI was greater than 100 µM.

What about the TGI (M19-MEL melanoma) of the same compound?
Its TGI is greater than 100 µM.

What about the TGI (SNB-78 CNS) of the same compound?
Its TGI is greater than 100 µM.

What does the source list for `CSCCOC(=O)C(=[N+]=[N-])c1ccc([N+](=O)[O-])cc1`?
TGI (DLD-1 colon): > 100 µM; TGI (DMS 114 small cell lung): > 100 µM; TGI (LXFL 529 NSCLC): > 100 µM; TGI (XF 498 CNS): > 100 µM

For `Clc1cc2n[se]nc2cc1Cl`, which TGI (DLD-1 colon) is on record?
Its TGI is greater than 100 µM.

And the TGI (DMS 114 small cell lung)?
Its TGI is greater than 100 µM.

What about the TGI (HOP-18 NSCLC) of the same compound?
The TGI was greater than 100 µM.

What about the TGI (LXFL 529 NSCLC) of the same compound?
Its TGI is greater than 100 µM.

What about the TGI (M19-MEL melanoma) of the same compound?
The TGI was greater than 100 µM.

And the TGI (RXF-631 renal)?
The TGI was greater than 100 µM.

What about the TGI (SNB-78 CNS) of the same compound?
Its TGI is greater than 100 µM.

What about the TGI (XF 498 CNS) of the same compound?
The TGI was greater than 100 µM.

`COc1cc2c(cc1OC)C(=O)Cc1ccc(OC)c(OC)c1CN(C)CC2` was tested. Which TGI (DLD-1 colon) did it give?
Its TGI is greater than 100 µM.

What about the TGI (DMS 114 small cell lung) of the same compound?
Its TGI is greater than 100 µM.

And the TGI (HOP-18 NSCLC)?
Its TGI is greater than 100 µM.

What about the TGI (LXFL 529 NSCLC) of the same compound?
Its TGI is greater than 100 µM.

What about the TGI (M19-MEL melanoma) of the same compound?
The TGI was greater than 100 µM.

And the TGI (RXF-631 renal)?
The TGI was greater than 100 µM.

And the TGI (SNB-78 CNS)?
Its TGI is greater than 100 µM.

And the TGI (XF 498 CNS)?
Its TGI is greater than 100 µM.

With `c1ccc2c(c1)[nH]c1c2nc2ncccn21` as the compound, how does the TGI (DLD-1 colon) read?
Its TGI is greater than 100 µM.

And the TGI (DMS 114 small cell lung)?
Its TGI is greater than 100 µM.

What about the TGI (LXFL 529 NSCLC) of the same compound?
Its TGI is greater than 100 µM.

What about the TGI (M19-MEL melanoma) of the same compound?
Its TGI is greater than 100 µM.

And the TGI (RXF-631 renal)?
The TGI was greater than 100 µM.

And the TGI (SNB-78 CNS)?
The TGI was greater than 100 µM.

And the TGI (XF 498 CNS)?
Its TGI is greater than 100 µM.

For `COC(=O)c1ccc(Cl)cc1NC(=O)C1CCCCC1`, which TGI (DMS 114 small cell lung) is on record?
The TGI was greater than 100 µM.

What about the TGI (LXFL 529 NSCLC) of the same compound?
Its TGI is greater than 100 µM.

And the TGI (M19-MEL melanoma)?
The TGI was greater than 100 µM.

And the TGI (SNB-78 CNS)?
Its TGI is greater than 100 µM.

Which TGI (DLD-1 colon) does the source give for `O=C1CC(O)(c2ccccc2)C(c2ccccc2)=C1c1ccccc1` (configuration not stated) here?
The TGI was greater than 100 µM.

What about the TGI (DMS 114 small cell lung) of the same compound?
Its TGI is 89.8 µM.

And the TGI (LXFL 529 NSCLC)?
Its TGI is greater than 100 µM.

And the TGI (M19-MEL melanoma)?
The TGI was 91.4 µM.

And the TGI (SNB-78 CNS)?
The TGI was greater than 100 µM.

And the TGI (XF 498 CNS)?
The TGI was 73.5 µM.

With `CC1(C)CCC(C)(C)c2c1ccc(O)c2Cc1c(O)ccc2c1C(C)(C)CCC2(C)C` as the compound, how does the TGI (MDA-N) read?
Its TGI is 3.73 µM.

`COc1ccc2nc3ccccc3c(NCCCN(C)CCCl)c2c1` was tested. Which TGI (DLD-1 colon) did it give?
Its TGI is 3.68 µM.

What about the TGI (DMS 114 small cell lung) of the same compound?
Its TGI is 1.68 µM.

And the TGI (LXFL 529 NSCLC)?
The TGI was 1.53 µM.

What about the TGI (M19-MEL melanoma) of the same compound?
The TGI was 1.9 µM.

And the TGI (MDA-N)?
Its TGI is 2.02 µM.

What about the TGI (RXF-631 renal) of the same compound?
Its TGI is 2.15 µM.

And the TGI (SNB-78 CNS)?
The TGI was 2.27 µM.

What about the TGI (XF 498 CNS) of the same compound?
The TGI was 0.77 µM.

How did the TGI (MDA-N) turn out when `S=c1nc(Cl)cc2[nH]c(Cl)cn12` was run?
The TGI was 4.56 µM.

With `CC(C)(C)OC(=O)NC(CO)c1cccc(OCc2ccccc2)c1` (configuration not stated) as the compound, how does the TGI (DLD-1 colon) read?
The TGI was greater than 100 µM.

And the TGI (DMS 114 small cell lung)?
Its TGI is greater than 100 µM.

What about the TGI (HOP-18 NSCLC) of the same compound?
The TGI was greater than 100 µM.

And the TGI (LXFL 529 NSCLC)?
The TGI was greater than 100 µM.

What about the TGI (M19-MEL melanoma) of the same compound?
The TGI was greater than 100 µM.

What about the TGI (SNB-78 CNS) of the same compound?
Its TGI is greater than 100 µM.

And the TGI (XF 498 CNS)?
The TGI was greater than 100 µM.

What does the source list for `COc1ccc2oc(C(=O)O)c3c2c1CCC3`?
TGI (DLD-1 colon): > 100 µM; TGI (DMS 114 small cell lung): > 100 µM; TGI (HOP-18 NSCLC): > 100 µM; TGI (LXFL 529 NSCLC): > 100 µM; TGI (M19-MEL melanoma): > 100 µM; TGI (SNB-78 CNS): > 100 µM; TGI (XF 498 CNS): > 100 µM

Source: PubChem BioAssay (NCI)
